Laboratory results as given in patent US6756206B2, “Adsorption and removal of endotoxin from physiological fluids using cationic helix peptides” (Commonwealth Biotechnologies, Inc., priority 1998, dated 2004).
Where two headings read alike, the source gives them in different places. No end group written: not given here.

Columns and labels:
[1] = Neutralization of endotoxin purposely added to plasma or buffer, kinetic chromogenic Limulus amebocyte lysate endotoxin assay; format: biochemical; settings: for neutralization (binding) of endotoxin, in words: endotoxin added to plasma or aqueous samples; for Percent binding of Endotoxin: plasma, endotoxin 10 ng/mL
Experimental: The presence of endotoxin may routinely be measured using, for example, a kinetic chromogenic method. The assay involves a complete set of enzyme reactions which are described in detail in the following publications, each of which is hereby incorporated by reference.
In the course of the endotoxin assay, a calibration curve is prepared which is a plot of logarithm of the time of the kinetic endpoint of a chromogenic reaction versus the logarithm of known concentrations of endotoxin.
Thus, if endotoxin is added to aqueous buffer solutions or to plasma the amount of endotoxin present can be assayed by reference to the calibration curve. Similarly, if plasma, plasma fractions, patient samples or any test solution contains an endogenous level of endotoxin, the level can also be determined by reference to the calibration curve.
Endotoxin was purposely added to plasma to a final concentration of 10 ng/mL and increasing concentrations of the compounds Arg Helix #2 (a monomeric cationic helix peptide), Bis Arg Helix #2 (which contains 2 copies of Arg Helix #2), Tris Arg Helix #3 (which contains 3 copies of Arg Helix #3), Tetra Arg Helix #3 (4 copies of Arg Helix #3) or Tris Arg Helix #3 (constrained) (3 copies of Arg Helix #3 constrained by design to present a “binding groove” within the molecule) were added to these same samples (Table 1).

[2] = cited from earlier work

Molecule	neutralization (binding) of endotoxin, in words [1]	Percent binding of Endotoxin ([1]; peptide concentration 0.01 mg/mL) [%]	Percent binding of Endotoxin ([1]; peptide concentration 0.1 mg/mL) [%]	Percent binding of Endotoxin ([1]; peptide concentration 0.5 mg/mL) [%]	Percent binding of Endotoxin ([1]; peptide concentration 1.0 mg/mL) [%]	Survival ([2]; animals treated with cefoxitin and rHBP, compared to controls)	Survival ([2]; mice pretreated well in advance)	Survival ([2]; treated at the time of ligation and puncture, versus control group)
Bis Arg Helix #2: contains 2 copies of Arg Helix #2; SEQ ID NOS.:2 and 3, FIG. 1A (chain 1 ARAARRAARAAARRARAEA; chain 2 AEARARRAAARAARRAARA; also: two copies linked, linkage not given here)	very little neutralization (binding) activity	0.00	24.7	51.2	63.5			
protamine [reference compound]	ineffective in neutralizing endotoxin							
rHBP: recombinant heparin binding protein; formerly known as cationic antimicrobial protein or bactericidal/permeability increasing factor (protein, UniProt P20160 27-248, looked up) Azurocidin: IVGGRKARPRQFPFLASIQNQGRHFCGGALIHARFVMTAASCFQSQNPGVSTVVLGAYDLRRRERQSRQTFSISSMSENGYDPQQNLNDLMLLQLDREANLTSSVTILPLPLQNATVEAGTRCQVAGWGSQRSGGRLSRFPRFVNVTVTPEDQCRPNNVCTGVLTRRGGICNGDGGTPLVCEGLAHGVASFSLGPCGRGPDFFTRVALFRDWIDGVLNNPGP						increased significantly	increased	not significantly different
